Source: patent US20240158348A1, “HERBICIDAL CYCLIC AMIDES N-SUBSTITUTED WITH A HALOALKYLSULFONYLANILIDE GROUP” (FMC Corporation, priority 2021, published 2024)

Columns and labels:
Format in all cases: in vivo
[1] = tested on: foxtail, giant (giant foxtail, Setaria faberi); test: Test C preemergence, giant foxtail; settings: 0 is no effect, 100 is complete control
Method in brief: (§1)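 Herbicidal effect was estimated visually on a 0–100 scale 10 or 12 days after spraying. Formulation: non-phytotoxic solvent mixture with surfactant. Timing: directed soil spray after sowing, or postemergence on seedlings bearing one or two leaves.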

[2] = tested on: pigweed, palmer (palmer amaranth, Amaranthus palmeri); test: Test C preemergence, palmer amaranth; settings: 0 is no effect, 100 is complete control
Method in brief: as §1

[3] = tested on: ragweed (common ragweed, Ambrosia artemisiifolia); test: Test C preemergence, ragweed; settings: 0 is no effect, 100 is complete control
Method in brief: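 Pre: soil sprayed at seeding. Post: seedlings treated at 1–2 leaves (2–10 cm). Vehicle non-phytotoxic solvent mix with surfactant; loam–sand medium; greenhouse; visual injury read at 10 or 12 days, scale 0–100.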

[4] = tested on: blackgrass (Alopecurus myosuroides); test: Test C postemergence, blackgrass; settings: visual injury, 0 to 100 scale (0 no effect, 100 complete control)
Method in brief: as §1

soybean (Glycine max) = test: Test C postemergence, soybean; settings: for Soybean plant response rating: visual injury, 0 to 100 scale (0 no effect, 100 complete control); for Plant response rating (0 to 100 scale), Soybean: 0 is no effect, 100 is complete control
[5] = tested on: wheat (Triticum aestivum); test: Test C postemergence, wheat; settings: for Wheat plant response rating: visual injury, 0 to 100 scale (0 no effect, 100 complete control); for Plant response rating (0 to 100 scale), Wheat: 0 is no effect, 100 is complete control
Method in brief: as §1

[6] = tested on: galium (catchweed bedstraw, Galium aparine); test: Test C postemergence, galium; settings: for Galium plant response rating: 31 g ai/ha Postemergence, visual injury, 0 to 100 scale (0 no effect, 100 complete control); for Plant response rating (0 to 100 scale), Galium: 125 g ai/ha Postemergence, 0 is no effect, 100 is complete control
[7] = tested on: barnyardgrass (Echinochloa crusgalli); test: Test D flooded paddy test, barnyardgrass; parameters: key: 0 = no effect, 100 = complete control; settings: 250 g ai/ha, Flood; applied to paddy water at 2-leaf stage; visual rating after 13 days; scale 0 (no effect) to 100 (complete control)
Method in brief: (§2)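 Test compounds applied directly to paddy water after pots were flooded to 3 cm above soil, with plants at 2-leaf stage; depth held throughout. Greenhouse for 13 days, then visual rating versus controls on 0–100 scale (0 no effect, 100 complete control); dash means no result.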

[8] = tested on: ducksalad (Heteranthera limosa); test: Test D flooded paddy test, ducksalad; parameters: key: 0 = no effect, 100 = complete control; settings: 250 g ai/ha, Flood; applied to paddy water at 2-leaf stage; visual rating after 13 days; scale 0 (no effect) to 100 (complete control)
Method in brief: as §2

rice (Oryza sativa) = test: Test D flooded paddy test, rice; parameters: key: 0 = no effect, 100 = complete control; settings: 250 g ai/ha, Flood; applied to paddy water at 2-leaf stage; visual rating after 13 days; scale 0 (no effect) to 100 (complete control)
Method in brief: as §2

SMILES	Plant response rating (0 to 100 scale), Foxtail, Giant ([1]; 31 g ai/ha Preemergence)	Plant response rating (0 to 100 scale), Foxtail, Giant ([1]; 125 g ai/ha Preemergence)	Plant response rating (0 to 100 scale), Pigweed, Palmer ([2]; 31 g ai/ha Preemergence)	Plant response rating (0 to 100 scale), Pigweed, Palmer ([2]; 125 g ai/ha Preemergence)	Plant response rating (0 to 100 scale), Ragweed ([3]; 31 g ai/ha Preemergence)	Plant response rating (0 to 100 scale), Ragweed ([3]; 125 g ai/ha Preemergence)	Blackgrass plant response rating ([4]; 31 g ai/ha Postemergence)	Soybean plant response rating (soybean (Glycine max); 31 g ai/ha Postemergence)	Soybean plant response rating (soybean (Glycine max); 125 g ai/ha Postemergence)	Wheat plant response rating ([5]; 31 g ai/ha Postemergence)	Wheat plant response rating ([5]; 125 g ai/ha Postemergence)	Galium plant response rating [6]	Plant response rating (0 to 100 scale), Galium [6]	Plant response rating, Barnyardgrass [7]	Plant response rating, Ducksalad [8]	Plant response rating, Rice (rice (Oryza sativa))	Plant response rating (0 to 100 scale), Soybean (soybean (Glycine max); 125 g ai/ha Postemergence)	Plant response rating (0 to 100 scale), Wheat ([5]; 125 g ai/ha Postemergence)	Blackgrass plant response rating ([4]; 125 g ai/ha Postemergence)
Cc1cc(C)c(N2CCC(OC3CC3)C2=O)cc1NS(=O)(=O)C(F)(F)F (single isomer, unassigned) [Compound 30]	100	100	100	100	100	100	50	50	60	70	70	80	100	95	90	75	–	–	–
CO/N=C1\CCN(c2cc(NS(=O)(=O)C(F)(F)F)c(C)cc2C)C1=O [Compound 9, 1,1,1-trifluoro-N-[5-[3-(methoxyimino)-2-oxo-1-pyrrolidinyl]-2,4-dimethylphenyl]methanesulfonamide]	100	100	100	100	50	90	80	80	–	80	–	90	100	10	95	30	80	80	–
Cc1cc(C)c(N2CC/C(=N\O)C2=O)cc1NS(=O)(=O)C(F)(F)F [Compound 10, 1,1,1-trifluoro-N-[5-[3-(hydroxyimino)-2-oxo-1-pyrrolidinyl]-2,4-dimethylphenyl]methanesulfonamide]	90	100	50	100	0	30	60	80	–	80	–	100	100	0	90	0	80	80	–
C=CCO/N=C1\CCN(c2cc(NS(=O)(=O)C(F)(F)F)c(C)cc2C)C1=O [Compound 11]	100	100	70	100	80	90	40	100	–	80	–	80	100	25	100	45	100	90	–
CCO/N=C1\CCN(c2cc(NS(=O)(=O)C(F)(F)F)c(C)cc2C)C1=O [Compound 12, N-[5-[3-(ethoxyimino)-2-oxo-1-pyrrolidinyl]-2,4-dimethylphenyl]-1,1,1-trifluoromethanesulfonamide]	100	100	100	100	100	100	80	100	–	80	–	100	100	0	100	40	100	90	–
C#CCO/N=C1\CCN(c2cc(NS(=O)(=O)C(F)(F)F)c(C)cc2C)C1=O [Compound 13, N-[2,4-dimethyl-5-[2-oxo-3-[(2-propyn-1-yloxy)imino]-1-pyrrolidinyl]phenyl]-1,1,1-trifluoromethanesulfonamide]	100	100	100	100	50	100	80	100	–	90	–	100	100	10	100	35	100	90	–
Cc1cc(C)c(N(COC(=O)C(C)(C)C)S(=O)(=O)C(F)(F)F)cc1N1CCC(OCC2CC2)C1=O (stereo not drawn) [Compound 53]	10	90	30	90	60	70	20	50	60	40	80	–	–	40	70	25	–	–	60
Cc1cc(C)c(N(COC(=O)C(C)(C)C)S(=O)(=O)C(F)(F)F)cc1N1CCC(OCC2CC2(F)F)C1=O (stereo not drawn) [Compound 54]	0	80	0	50	0	60	30	50	60	30	70	–	–	45	90	0	–	–	90
Cc1cc(C)c(N(COC(=O)C(C)(C)C)S(=O)(=O)C(F)(F)F)cc1N1CCC(OCC2CCC2)C1=O (stereo not drawn) [Compound 56]	0	80	10	90	0	30	0	40	50	0	70	–	–	35	85	0	–	–	20
